Experimental data: PMC8427973, “Regulation of the HTRA2 Protease Activity by an Inhibitory Antibody-Derived Peptide Ligand and the Influence on HTRA2-Specific Protein Interaction Networks in Retinal Tissues” (Biomedicines, 2021)

Tested on: recombinant 6xHis-tag HTRA2 and its protein interaction partners in homogenized porcine retina
Test: Co-immunoprecipitation (Co-IP) of HTRA2 protein interaction partners, quantitative LC-MS/MS (iBAQ, volcano plot vs CTRL beads)
Set-up: species or system house swine (Sus scrofa)
Details: 2 µg HTRA2 + 10 µg compound, n = 3, vs CTRL beads
Experimental: The retina extraction and homogenization were performed as already described in previous publications. The use of animal by-products of house swine for scientific research purposes was approved by the Kreisverwaltung Mainz-Bingen in Germany (Identification Code: DE 07 315 0006 21, approved on 13 January 2014). In brief, retinal tissues were extracted from freshly removed porcine eye bulbs (house swine, Sus scrofa domestica Linnaeus, n = 30) provided by the local slaughterhouses (Landmetzgerei Harth, Stadecken-Elsheim, Germany). Afterwards, the retinal tissues were homogenized in 2 mL screw cap microtubes filled with 1.4/2.8 mm ceramic beads and 1 mL Tissue Protein Extraction Reagent (T-PER, Thermo Fisher Scientific, Rockford, IL, USA) using a Percellys® 24 homogenizer (VWR International GmbH, Darmstadt, Germany). The homogenized retinal samples were then centrifuged at 14,000× g for 15 min at 4 °C. The protein-containing supernatant was exchanged in a 100 µL phosphate-buffered saline (PBS) using a 3 kDa Amicon® filtration unit (Millipore, Billerica, MA, USA) and, prior to this, was extensively washed in order to completely remove traces of the T-PER buffer. Afterwards, the samples were pooled and the protein concentration was determined using a Pierce Bicinchoninic Acid (BCA) Protein Assay Kit (Thermo Fisher Scientific, Rockford, IL, USA) according to the manufacturer’s protocol, which provided 5 mg aliquots for further analysis.
The recombinant protein HTRA2 with a C-terminal 6xHis-tag motif (Novoprotein Scientific INC., Summit, NJ, USA) and 40 μL HisPurTM Ni-NTA magnetic beads (Thermo Fisher Scientific, Rockford, IL, USA) were spiked into 5 mg homogenized porcine retina. The experiment comprised of four groups: control homogenate (CTRL group), homogenate with 2 μg recombinant HTRA2 (HTRA2 group), homogenate with 2 μg recombinant HTRA2 and 10 μg UCF-101 (UCF-101 group), and homogenate with 2 μg recombinant HTRA2 and 10 μg synthetic CDR peptide (CDR group). The Co-IP of the recombinant HTRA2 and the enrichment of the respective interaction partners was performed with three independent biological replicates for each group (CTRL, HTRA2, UCF-101, and CDR group). After incubation at 4 °C overnight, the 6xHis-tagged protein HTRA2 with the bounded protein interaction partners (co-immunoprecipitation) was isolated with the previously added HisPurTM Ni-NTA magnetic beads (Thermo Fisher Scientific, Rockford, IL, USA) using a magnetic stand. Each bead group was washed twice with 400 μL PBS and the bounded HTRA2 including the protein interaction partners were eluted by pH shift. The protein concentration of each eluate fraction was determined as described above. Afterwards, 50 μg of each eluate fraction was evaporated using a speed vacuum concentrator (SpeedVac) (Eppendorf, Hamburg, Germany) for 45 min at 30 °C and was stored afterwards at −20 °C.
The protein eluate fractions of each group (50 μg; n = 3 biological replicates per group) were separated by 1D SDS PAGE on 10-well NuPAGE® 12% Bis-Tris gels using NuPAGE™ MOPS SDS Running Buffer 20X (Thermo Fisher Scientific, Rockford, IL, USA). The 1D SDS PAGE was performed with the XCell SureLock^TM Mini-Cell Electrophoresis System (Thermo Fisher Scientific, Rockford, IL, USA) under denatured and reduced conditions, as already described in previous publications. The protein separation was performed for 2 h at 4 °C using 150 V, and then the gels were stained with the Novex Colloidal Blue Staining Kit (Thermo Fisher Scientific, Rockford, IL, USA) according to the manufacturer’s protocol. The next day, the gels were destained overnight and scanned using a DGP-9042 scanner (Brother Industries, Nagoya, Japan) at 600 dpi. In-gel trypsin digestion was performed as already described in previous publications. In brief, each protein lane was divided into 17 slices and was subsequently cut into small pieces. […]

## O=C1C(=Cc2ccc(-c3ccccc3[N+](=O)[O-])o2)C(=O)N(c2ccccc2)C(=S)N1c1ccccc1 [UCF-101, reference compound]
HTRA2 alone: -
  FGF2 (Fibroblast growth factor 2) as significant interaction partner of HTRA2: √ (Proteins fulfilled filtering criteria (p < 0.01; log2 fold change > 1.5))
  FTH1 (Ferritin heavy chain) as significant interaction partner of HTRA2: √ (Proteins fulfilled filtering criteria (p < 0.01; log2 fold change > 1.5))
  GTF2F2 (General transcription factor IIF subunit 2) as significant interaction partner of HTRA2: √ (Proteins fulfilled filtering criteria (p < 0.01; log2 fold change > 1.5))
  NAPG (Gamma-soluble NSF attachment protein) as significant interaction partner of HTRA2: - (Proteins failed to fulfill the filtering criteria (p > 0.01; log2 fold change < 1.5))
  PDZD11 (PDZ domain-containing protein 11) as significant interaction partner of HTRA2: √ (Proteins fulfilled filtering criteria (p < 0.01; log2 fold change > 1.5))
  PGRMC1 (Membrane-associated progesterone receptor component 1) as significant interaction partner of HTRA2: √ (Proteins fulfilled filtering criteria (p < 0.01; log2 fold change > 1.5))
  PLRG1 (Pleiotropic regulator 1) as significant interaction partner of HTRA2: - (Proteins failed to fulfill the filtering criteria (p > 0.01; log2 fold change < 1.5))
  POLR2E (DNA-directed RNA polymerases I, II, and III subunit RPABC1) as significant interaction partner of HTRA2: - (Proteins failed to fulfill the filtering criteria (p > 0.01; log2 fold change < 1.5))
  PPA1 (Inorganic pyrophosphatase) as significant interaction partner of HTRA2: √ (Proteins fulfilled filtering criteria (p < 0.01; log2 fold change > 1.5))
  SFRP1 (Secreted frizzled-related protein 1) as significant interaction partner of HTRA2: - (Proteins failed to fulfill the filtering criteria (p > 0.01; log2 fold change < 1.5))
  TUBA1C (Tubulin alpha-1C chain) as significant interaction partner of HTRA2: - (Proteins failed to fulfill the filtering criteria (p > 0.01; log2 fold change < 1.5))
  UBE2N (Ubiquitin-conjugating enzyme E2 N) as significant interaction partner of HTRA2: √ (Proteins fulfilled filtering criteria (p < 0.01; log2 fold change > 1.5))
HTRA2 alone: n.d.
  CDC42 (Cell division control protein 42 homolog) as significant interaction partner of HTRA2: √ (Proteins fulfilled filtering criteria (p < 0.01; log2 fold change > 1.5))
  COPE (Coatomer subunit epsilon) as significant interaction partner of HTRA2: √ (Proteins fulfilled filtering criteria (p < 0.01; log2 fold change > 1.5))
  MRPL2 (39S ribosomal protein L2, mitochondrial) as significant interaction partner of HTRA2: - (Proteins failed to fulfill the filtering criteria (p > 0.01; log2 fold change < 1.5))
  SNX3 (Sorting nexin-3) as significant interaction partner of HTRA2: √ (Proteins fulfilled filtering criteria (p < 0.01; log2 fold change > 1.5))
  SOWAHA (Ankyrin repeat domain-containing protein SOWAHA) as significant interaction partner of HTRA2: - (Proteins failed to fulfill the filtering criteria (p > 0.01; log2 fold change < 1.5))
  TIMM13 (Mitochondrial import inner membrane translocase subunit Tim13) as significant interaction partner of HTRA2: √ (Proteins fulfilled filtering criteria (p < 0.01; log2 fold change > 1.5))
  TUBB8 (Tubulin beta-8 chain) as significant interaction partner of HTRA2: - (Proteins failed to fulfill the filtering criteria (p > 0.01; log2 fold change < 1.5))
HTRA2 alone: √
  ANK2 (Ankyrin-2) as significant interaction partner of HTRA2: - (Proteins failed to fulfill the filtering criteria (p > 0.01; log2 fold change < 1.5))
  AP2A1 (AP-2 complex subunit alpha-1) as significant interaction partner of HTRA2: - (Proteins failed to fulfill the filtering criteria (p > 0.01; log2 fold change < 1.5))
  AP3D1 (AP-3 complex subunit delta-1) as significant interaction partner of HTRA2: - (Proteins failed to fulfill the filtering criteria (p > 0.01; log2 fold change < 1.5))
  AUH (Methylglutaconyl-CoA hydratase, mitochondrial) as significant interaction partner of HTRA2: - (Proteins failed to fulfill the filtering criteria (p > 0.01; log2 fold change < 1.5))
  CS (Citrate synthase, mitochondrial) as significant interaction partner of HTRA2: - (Proteins failed to fulfill the filtering criteria (p > 0.01; log2 fold change < 1.5))
  CSTB (Cystatin-B) as significant interaction partner of HTRA2: - (Proteins failed to fulfill the filtering criteria (p > 0.01; log2 fold change < 1.5))
  DNAJA3 (DnaJ homolog subfamily A member 3, mitochondrial) as significant interaction partner of HTRA2: - (Proteins failed to fulfill the filtering criteria (p > 0.01; log2 fold change < 1.5))
  DTD1 (D-aminoacyl-tRNA deacylase 1) as significant interaction partner of HTRA2: - (Proteins failed to fulfill the filtering criteria (p > 0.01; log2 fold change < 1.5))
  EIF2S3 (Eukaryotic translation initiation factor 2 subunit 3) as significant interaction partner of HTRA2: - (Proteins failed to fulfill the filtering criteria (p > 0.01; log2 fold change < 1.5))
  FAM30A (Putative uncharacterized protein FAM30A) as significant interaction partner of HTRA2: - (Proteins failed to fulfill the filtering criteria (p > 0.01; log2 fold change < 1.5))
  FLNA (Filamin-A) as significant interaction partner of HTRA2: - (Proteins failed to fulfill the filtering criteria (p > 0.01; log2 fold change < 1.5))
  GDI1 (Rab GDP dissociation inhibitor alpha) as significant interaction partner of HTRA2: - (Proteins failed to fulfill the filtering criteria (p > 0.01; log2 fold change < 1.5))
  GLO1 (Lactoylglutathione lyase) as significant interaction partner of HTRA2: - (Proteins failed to fulfill the filtering criteria (p > 0.01; log2 fold change < 1.5))
  GNL1 (Guanine nucleotide-binding protein-like 1) as significant interaction partner of HTRA2: - (Proteins failed to fulfill the filtering criteria (p > 0.01; log2 fold change < 1.5))
  HAGH (Hydroxyacylglutathione hydrolase, mitochondrial) as significant interaction partner of HTRA2: - (Proteins failed to fulfill the filtering criteria (p > 0.01; log2 fold change < 1.5))
  HTRA2 (Serine protease HTRA2, mitochondrial; target protein) enriched: √ (Proteins fulfilled filtering criteria (p < 0.01; log2 fold change > 1.5))
  HYOU1 (Hypoxia up-regulated protein 1) as significant interaction partner of HTRA2: - (Proteins failed to fulfill the filtering criteria (p > 0.01; log2 fold change < 1.5))
  ME2 (NAD-dependent malic enzyme, mitochondrial) as significant interaction partner of HTRA2: - (Proteins failed to fulfill the filtering criteria (p > 0.01; log2 fold change < 1.5))
  NCKAP1 (Nck-associated protein 1) as significant interaction partner of HTRA2: - (Proteins failed to fulfill the filtering criteria (p > 0.01; log2 fold change < 1.5))
  PACS1 (Phosphofurin acidic cluster sorting protein 1) as significant interaction partner of HTRA2: - (Proteins failed to fulfill the filtering criteria (p > 0.01; log2 fold change < 1.5))
  POTEE (POTE ankyrin domain family member E) as significant interaction partner of HTRA2: - (Proteins failed to fulfill the filtering criteria (p > 0.01; log2 fold change < 1.5))
  PTGES3 (Prostaglandin E synthase 3) as significant interaction partner of HTRA2: √ (Proteins fulfilled filtering criteria (p < 0.01; log2 fold change > 1.5))
  SHMT2 (Serine hydroxymethyltransferase, mitochondrial) as significant interaction partner of HTRA2: - (Proteins failed to fulfill the filtering criteria (p > 0.01; log2 fold change < 1.5))
  SPTBN1 (Spectrin beta chain, non-erythrocytic 1) as significant interaction partner of HTRA2: - (Proteins failed to fulfill the filtering criteria (p > 0.01; log2 fold change < 1.5))
  UBE2V1 (Ubiquitin-conjugating enzyme E2 variant 1) as significant interaction partner of HTRA2: √ (Proteins fulfilled filtering criteria (p < 0.01; log2 fold change > 1.5))
